Where two headings read alike, the source gives them in different places.
Key:
[1] = ATB200-04 trial: population PK exposure matching of adolescents to adults; format: in vivo, human; conditions: for AUC(0-t) / Cmax: human, plasma
Source text: The ATB200-04 trial seeks to evaluate the safety and tolerability of cipaglucosidase alfa/miglustat co-administration.
Subjects have scheduled PK assessments at Day 1, Week 26, and Week 52 for plasma total GAA protein and miglustat.
Population PK parameters include clearance (CL) and volume of distribution (V), estimated from total GAA protein concentrations and miglustat concentrations in plasma.
Methods for Exposure Matching. Pediatric PK data from both clinical trials and expanded access programs were used for exposure matching to adult PK data. […] The previous base population PK models from cipaglucosidase alfa-atga and miglustat were rerun with the updated dataset. To account for longitudinal changes in body size for pediatric patients, the time-varying body weight was used to estimate the effects of body size on PK parameters in the population PK models. The effect of age at baseline on clearance was also evaluated in the PK models. Individual AUC0-24 and Cmax of cipaglucosidase alfa and miglustat were predicted from the PK empirical Bayes estimates (EBEs). The time-varying body weight and baseline age in pediatrics were used in the exposure prediction. PK exposures (AUC0-24 and Cmax) were predicted for each PK visit during the study; Day 1-baseline, Week 26, and Week 52. Additionally, there were unscheduled PK visits for some subjects.
Results for Adolescent Subjects. […] The dose may have been adjusted at a later visit for exposure matching. It should be noted however, that in the early stage of the study, all subjects were started at 20 mg/kg to evaluate safety.

[2] = test system: pediatric subjects with late-onset Pompe disease; test: ATB200-04 trial: safety in pediatric subjects with LOPD; format: in vivo, human; conditions: ERT-experienced subject, Cohort 2

- AUC(0-t) ([1]; oral, miglustat, predicted, Adults N=100, read-out: AUC0-24, Geo Mean): 20400 ng·h/mL
- AUC(0-t) ([1]; oral, miglustat, predicted, Adults N=100, read-out: AUC0-24, Mean): 20700 ng·h/mL
- AUC(0-t) ([1]; oral, miglustat, predicted, Adults N=100, read-out: AUC0-24, Median): 20700 ng·h/mL
- AUC(0-t) ([1]; oral, miglustat, predicted, Adults N=100, read-out: AUC0-24, P5): 15200 ng·h/mL
- AUC(0-t) ([1]; oral, miglustat, predicted, Adults N=100, read-out: AUC0-24, P95): 28300 ng·h/mL
- Cmax ([1]; oral, miglustat, predicted, Adults N=100, read-out: Cmax, Geo Mean): 2370 ng/mL
- Cmax ([1]; oral, miglustat, predicted, Adults N=100, read-out: Cmax, Mean): 2420 ng/mL
- Cmax ([1]; oral, miglustat, predicted, Adults N=100, read-out: Cmax, Median): 2370 ng/mL
- Cmax ([1]; oral, miglustat, predicted, Adults N=100, read-out: Cmax, P5): 1720 ng/mL
- Cmax ([1]; oral, miglustat, predicted, Adults N=100, read-out: Cmax, P95): 3280 ng/mL
- AUC(0-t) ([1]; po, 195 mg, adolescent Subject 5, 195 mg, Week 52, 43.7 kg, read-out: individual predicted AUC0-24): 21000 ng·h/mL
- Cmax ([1]; po, 195 mg, adolescent Subject 5, 195 mg, Week 52, 43.7 kg, read-out: individual predicted Cmax): 2330 ng/mL
- AUC(0-t) ([1]; po, 195 mg, adolescent Subject 6, 195 mg, Week 52, 36.5 kg, read-out: individual predicted AUC0-24): 13500 ng·h/mL
- Cmax ([1]; po, 195 mg, adolescent Subject 6, 195 mg, Week 52, 36.5 kg, read-out: individual predicted Cmax): 1700 ng/mL
- AUC(0-t) ([1]; po, 260 mg, adolescent Subject 1, 260 mg, Week 52, 77.9 kg, read-out: individual predicted AUC0-24): 20400 ng·h/mL
- Cmax ([1]; po, 260 mg, adolescent Subject 1, 260 mg, Week 52, 77.9 kg, read-out: individual predicted Cmax): 2960 ng/mL
- AUC(0-t) ([1]; po, 260 mg, adolescent Subject 2, 260 mg, Week 52, 83.8 kg, read-out: individual predicted AUC0-24): 17100 ng·h/mL
- Cmax ([1]; po, 260 mg, adolescent Subject 2, 260 mg, Week 52, 83.8 kg, read-out: individual predicted Cmax): 1910 ng/mL
- AUC(0-t) ([1]; po, 260 mg, adolescent Subject 3, 260 mg, Week 52, 64.6 kg, read-out: individual predicted AUC0-24): 20300 ng·h/mL
- Cmax ([1]; po, 260 mg, adolescent Subject 3, 260 mg, Week 52, 64.6 kg, read-out: individual predicted Cmax): 2170 ng/mL
- AUC(0-t) ([1]; po, 260 mg, adolescent Subject 4, 260 mg, Week 64, 53.3 kg, read-out: individual predicted AUC0-24): 22300 ng·h/mL
- Cmax ([1]; po, 260 mg, adolescent Subject 4, 260 mg, Week 64, 53.3 kg, read-out: individual predicted Cmax): 2590 ng/mL
- AUC(0-t) ([1]; po, 260 mg, adolescent Subject 7, 260 mg, Week 52, 60.3 kg, read-out: individual predicted AUC0-24): 15000 ng·h/mL
- Cmax ([1]; po, 260 mg, adolescent Subject 7, 260 mg, Week 52, 60.3 kg, read-out: individual predicted Cmax): 1850 ng/mL
- AUC(0-t) ([1]; po, 260 mg, adolescent Subject 8, 260 mg, Week 72, 38.5 kg, read-out: individual predicted AUC0-24): 19600 ng·h/mL
- Cmax ([1]; po, 260 mg, adolescent Subject 8, 260 mg, Week 72, 38.5 kg, read-out: individual predicted Cmax): 1800 ng/mL
- AUC(0-t) ([1]; po, miglustat, predicted, Adolescents N=8, read-out: AUC0-24, Geo Mean): 18400 ng·h/mL
- AUC(0-t) ([1]; po, miglustat, predicted, Adolescents N=8, read-out: AUC0-24, Mean): 18700 ng·h/mL
- AUC(0-t) ([1]; po, miglustat, predicted, Adolescents N=8, read-out: AUC0-24, Median): 20000 ng·h/mL
- AUC(0-t) ([1]; po, miglustat, predicted, Adolescents N=8, read-out: AUC0-24, P5): 14100 ng·h/mL
- AUC(0-t) ([1]; po, miglustat, predicted, Adolescents N=8, read-out: AUC0-24, P95): 21800 ng·h/mL
- Cmax ([1]; po, miglustat, predicted, Adolescents N=8, read-out: Cmax, Geo Mean): 2130 ng/mL
- Cmax ([1]; po, miglustat, predicted, Adolescents N=8, read-out: Cmax, Mean): 2160 ng/mL
- Cmax ([1]; po, miglustat, predicted, Adolescents N=8, read-out: Cmax, Median): 2040 ng/mL
- Cmax ([1]; po, miglustat, predicted, Adolescents N=8, read-out: Cmax, P5): 1740 ng/mL
- Cmax ([1]; po, miglustat, predicted, Adolescents N=8, read-out: Cmax, P95): 2830 ng/mL
- Cmax, geometric LSM Ratio adolescents to adults ([1]; miglustat, 90% CI (79.51, 101.54)): 89.85
- AUC0-24, geometric LSM Ratio adolescents to adults ([1]; miglustat, 90% CI (80.58, 101.21)): 90.31
SMILES: CCCCN1C[C@H](O)[C@@H](O)[C@H](O)[C@H]1CO [miglustat, (2R,3R,4R,5S)-1-butyl-2-(hydroxymethyl) piperidine-3,4,5-triol]
- predicted AUC0-24 and Cmax for adolescents relative to adult 5th and 95th percentile range ([1]; adults N=100, adolescents N=8): for most adolescents are within the adult 5th and 95th percentile range
- investigator-assessed relatedness of anaphylaxis event (both episodes) [2]: unrelated

From patent US20260207718A1, “METHODS FOR TREATING LATE ONSET POMPE DISEASE IN PEDIATRIC PATIENTS” (Amicus Therapeutics, Inc., priority 2022, published 2026)
